Values quoted from earlier work, collected in patent US20050228335A1, “Physical, structural, mechanical, electrical and electromechanical features for use in association with electrically assisted delivery devices and systems” (priority 2004, published 2005).

Conditions: iontophoresis in vitro across human skin

| Structure (SMILES) | Cumulative delivery compared with lidocaine |
| --- | --- |
| CCCN(CC)C(CC)C(=O)Nc1c(C)cccc1C (centres unmarked) [etidocaine] | slightly greater delivery |
| CCN(CC)CCOC(=O)c1ccc(N)cc1 [procaine] | slightly greater delivery |
